# Test: Radiochemical purity and radiochemical stability of ^68GaPSMA-11 by HPLC
# Assay type: physicochemical
# Experimental: Radiochemical Purity and Identification of ^68GaPSMA-11 by HPLC
# Chromatographic Conditions
# Radical Scavenger to be used for the improvement of the radiochemical stability of ^68Ga-PSMA-11, tests were performed according to a varied approach in order to consider all the parameters that may affect the radiochemical purity of the product (activity, pH, volume, amount of Gentisic Acid).
# Stability tests were performed on the freeze dried product containing the final formulation. […] Kits manufactured with the final formulation, indeed, were stored at different stability conditions (2-8° C.; 25° C. and 40° C.) and were tested at different time points for API-assay, Radiochemical Purity and Radiochemical Stability of the radiolabelled product. Radiochemical Purity and Stability were assessed only eluting IRE Generator which represented the most stressful condition in terms of Radioactive Concentration (Volumic Activity).
# [1] = t4 h, Gentisic Acid 0 μg, IRE 17.19 mCi, 1 mL, pH 5.24
# [2] = t4 h, Gentisic Acid 200 μg, IRE 17.85 mCi, 1 mL, pH 5.22
# [3] = t4 h, Gentisic Acid 200 μg, IRE 18.07 mCi, 1 mL, pH 5.25
# [4] = t4 h, Gentisic Acid 200 μg, ITG 35.92 mCi, 4 mL, pH 4.83
# [5] = t4 h, Gentisic Acid 400 μg, IRE 17.44 mCi, 1 mL, pH 5.13
# [6] = t4 h, Gentisic Acid 400 μg, IRE 17.79 mCi, 1 mL, pH 5.11
# [7] = t4 h, Gentisic Acid 400 μg, ITG 16.9 mCi, 4 mL, pH 4.85
# [8] = t4 h, Gentisic Acid 400 μg, ITG 31.97 mCi, 4 mL, pH 4.81
# [9] = t4 h, Gentisic Acid 1000 μg, E&Z 15.65 mCi, 5 mL, pH 3.75
# [10] = t4 h, Gentisic Acid 1000 μg, IRE 17.1 mCi, 1 mL, pH 5.08
# [11] = t4 h, Gentisic Acid 1000 μg, ITG 30.9 mCi, 4 mL, pH 4.87
# [12] = t4 h, final formulation kit at Release, E&Z 15.65 mCi, 5 mL, pH 3.75
# [13] = t4 h, final formulation kit at Release, E&Z 16.80 mCi, 5 mL, pH 3.75
# [14] = t4 h, final formulation kit at Release, IRE 32.27 mCi, 1 mL, pH 4.95
# [15] = t4 h, final formulation kit at Release, IRE 32.95 mCi, 1 mL, pH 5.07
# [16] = t4 h, final formulation kit at Release, ITG 29.74 mCi, 4 mL, pH 4.67
# [17] = t4 h, final formulation kit at Release, ITG 30.90 mCi, 4 mL, pH 4.67
# [18] = t4 h, kit stored 3 months at 2-8° C., IRE 25.76 mCi, 1 mL, pH 5.29
# [19] = t4 h, kit stored 3 months at 25° C., IRE 24.56 mCi, 1 mL, pH 5.16
# [20] = t4 h, kit stored 3 months at 40° C., IRE 24.86 mCi, 1 mL, pH 5.23
# [21] = t4 h, kit stored 6 months at 2-8° C., IRE 19.90 mCi, 1 mL, pH 5.13
# [22] = t4 h, kit stored 6 months at 25° C., IRE 18.88 mCi, 1 mL, pH 5.09
# [23] = t4 h, kit stored 6 months at 40° C., IRE 19.34 mCi, 1 mL, pH 5.15
substance,measurement,setting,value
^68Ga-PSMA-11 [[^68Ga] Gallium PSMA-11],"[^68Ga] Gallium main degradant, HPLC","t0 h, kit stored 6 months at 40° C., IRE 19.34 mCi, 1 mL, pH 5.15",0.42%
same,"[^68Ga] Gallium PSMA-11 (sum of stereosiomers), HPLC",[1],90.89%
same,"[^68Ga] Gallium free, HPLC",[1],0.14%
same,"[^68Ga] Gallium main degradant, HPLC",[1],7.32%
same,"[^68Ga] Gallium PSMA-11 (sum of stereosiomers), HPLC",[2],97.87%
same,"[^68Ga] Gallium free, HPLC",[2],0.00%
same,"[^68Ga] Gallium main degradant, HPLC",[2],1.80%
same,"[^68Ga] Gallium PSMA-11 (sum of stereosiomers), HPLC",[3],97.80%
same,"[^68Ga] Gallium free, HPLC",[3],0.00%
same,"[^68Ga] Gallium main degradant, HPLC",[3],1.74%
same,"[^68Ga] Gallium PSMA-11 (sum of stereosiomers), HPLC",[4],99.72%
same,"[^68Ga] Gallium free, HPLC",[4],0.00%
same,"[^68Ga] Gallium main degradant, HPLC",[4],0.00%
same,"[^68Ga] Gallium PSMA-11 (sum of stereosiomers), HPLC",[5],99.20%
same,"[^68Ga] Gallium free, HPLC",[5],0.00%
same,"[^68Ga] Gallium main degradant, HPLC",[5],0.68%
same,"[^68Ga] Gallium PSMA-11 (sum of stereosiomers), HPLC",[6],98.46%
same,"[^68Ga] Gallium free, HPLC",[6],0.00%
same,"[^68Ga] Gallium main degradant, HPLC",[6],1.54%
same,"[^68Ga] Gallium PSMA-11 (sum of stereosiomers), HPLC",[7],98.24%
same,"[^68Ga] Gallium free, HPLC",[7],0.00%
same,"[^68Ga] Gallium main degradant, HPLC",[7],0.00%
same,"[^68Ga] Gallium PSMA-11 (sum of stereosiomers), HPLC",[8],99.57%
same,"[^68Ga] Gallium free, HPLC",[8],0.00%
same,"[^68Ga] Gallium main degradant, HPLC",[8],0.00%
same,"[^68Ga] Gallium PSMA-11 (sum of stereosiomers), HPLC",[9],100.00%
same,"[^68Ga] Gallium free, HPLC",[9],0.00%
same,"[^68Ga] Gallium main degradant, HPLC",[9],0.00%
same,"[^68Ga] Gallium PSMA-11 (sum of stereosiomers), HPLC",[10],99.59%
same,"[^68Ga] Gallium free, HPLC",[10],0.00%
same,"[^68Ga] Gallium main degradant, HPLC",[10],0.41%
same,"[^68Ga] Gallium PSMA-11 (sum of stereosiomers), HPLC",[11],99.69%
same,"[^68Ga] Gallium free, HPLC",[11],0.00%
same,"[^68Ga] Gallium main degradant, HPLC",[11],0.06%
same,"[^68Ga] Gallium PSMA-11 (sum of stereosiomers), HPLC",[12],100.00%
same,"[^68Ga] Gallium free, HPLC",[12],0.00%
same,"[^68Ga] Gallium main degradant, HPLC",[12],0.00%
same,"[^68Ga] Gallium PSMA-11 (sum of stereosiomers), HPLC",[13],100.00%
same,"[^68Ga] Gallium free, HPLC",[13],0.00%
same,"[^68Ga] Gallium main degradant, HPLC",[13],0.00%
same,"[^68Ga] Gallium PSMA-11 (sum of stereosiomers), HPLC",[14],98.75%
same,"[^68Ga] Gallium free, HPLC",[14],0.00%
same,"[^68Ga] Gallium main degradant, HPLC",[14],0.54%
same,"[^68Ga] Gallium PSMA-11 (sum of stereosiomers), HPLC",[15],99.05%
same,"[^68Ga] Gallium free, HPLC",[15],0.03%
same,"[^68Ga] Gallium main degradant, HPLC",[15],0.42%
same,"[^68Ga] Gallium PSMA-11 (sum of stereosiomers), HPLC",[16],99.82%
same,"[^68Ga] Gallium free, HPLC",[16],0.00%
same,"[^68Ga] Gallium main degradant, HPLC",[16],0.00%
same,"[^68Ga] Gallium PSMA-11 (sum of stereosiomers), HPLC",[17],99.69%
same,"[^68Ga] Gallium free, HPLC",[17],0.00%
same,"[^68Ga] Gallium main degradant, HPLC",[17],0.06%
same,"[^68Ga] Gallium PSMA-11 (sum of stereosiomers), HPLC",[18],99.37%
same,"[^68Ga] Gallium free, HPLC",[18],0.00%
same,"[^68Ga] Gallium main degradant, HPLC",[18],0.49%
same,"[^68Ga] Gallium PSMA-11 (sum of stereosiomers), HPLC",[19],99.03%
same,"[^68Ga] Gallium free, HPLC",[19],0.00%
same,"[^68Ga] Gallium main degradant, HPLC",[19],0.38%
same,"[^68Ga] Gallium PSMA-11 (sum of stereosiomers), HPLC",[20],98.20%
same,"[^68Ga] Gallium free, HPLC",[20],0.00%
same,"[^68Ga] Gallium main degradant, HPLC",[20],0.37%
same,"[^68Ga] Gallium PSMA-11 (sum of stereosiomers), HPLC",[21],99.44%
same,"[^68Ga] Gallium free, HPLC",[21],0.00%
same,"[^68Ga] Gallium main degradant, HPLC",[21],0.44%
same,"[^68Ga] Gallium PSMA-11 (sum of stereosiomers), HPLC",[22],99.21%
same,"[^68Ga] Gallium free, HPLC",[22],0.00%
same,"[^68Ga] Gallium main degradant, HPLC",[22],0.33%
same,"[^68Ga] Gallium PSMA-11 (sum of stereosiomers), HPLC",[23],99.23%
same,"[^68Ga] Gallium free, HPLC",[23],0.00%
same,"[^68Ga] Gallium main degradant, HPLC",[23],0.46%
